Holding throughout (experiment): DTP human tumour cell line panel, 48 h
The subject of assay [1] is DLD-1 colon.
The test system of assay [2] is DMS 273 small cell lung.
Assay [3] has as its system M19-MEL melanoma.
Assay [4] deals with RXF-631 renal.
The test system of assay [5] is HOP-18 NSCLC.
Assay [6] relates to DMS 114 small cell lung.
For assay [7], the system named is LXFL 529 NSCLC.
Assay [8] concerns XF 498 CNS.
The subject of assay [9] is MDA-N.

What is called TGI is the concentration giving total growth inhibition. One may read the GI50 as the concentration at which growth is held to half of that of the control.

SMILES strings stand for the structures. Values joined by “and” are separate entries in the source; they are usually repeats but may differ in a detail not shown here. Equal values may be shown once.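 Five compound concentrations were applied to cells in 96-well plates for 48 hours; endpoints were derived by simple linear interpolation of the resulting dose-response curve. Abbreviation: GI50, concentration required for 50% inhibition of growth. TGI: total growth inhibition.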 Where only a bound is given, the exact number is not on record here.

As for `CCC/C(=N\NC(=O)c1cc2ccccc2cc1O)C(CC)C(=O)CCC(=O)N(Cc1ccccc1)Cc1ccccc1` (centres undefined), the total growth inhibition concentration (TGI) was > 100 µM in [1]; 52.8 µM in [2]; 48.6 µM in assay [3]; > 100 µM in assay [4]; 91.1 µM in [5]; 59.7 µM in [6]. The TGI in assay [7] is > 100 µM.
Regarding `Cc1cccc(NC(=O)CC#N)c1Cl`, the TGI in assay [1], in [8], in assay [2], in [3] and in assay [7] was > 100 µM in each case.
For `CC(=O)OCC1OC(Sc2ccccn2)C=CC1OC(C)=O` (centres undefined), the TGI in assay [1], in [8], in assay [2], in [3], in assay [5] and in assay [6] was > 100 µM throughout. The TGI in [7] is > 100 µM.
For `N#CC1=C(c2ccccc2)C(O)(c2ccccc2)NC1=O` (centres undefined), the TGI in assay [1], in assay [8], in assay [2], in assay [3], in [4] and in [5] was > 100 µM in each case. Further, the TGI in assay [6] and in [7] was > 100 µM each time.
In the case of `S=C(N/N=C(/c1ccccc1)c1ccccn1)Nc1cccc(Cl)c1`, in assay [9], the GI50 is 1.14 µM; the TGI is 7.35 µM and 6.85 µM.
Consider `BrC12c3ccccc3Sc3ccccc3C1(Br)c1ccccc12` (centres undefined), for which the TGI was > 100 µM in assay [1]; 87.2 µM in [2]; > 100 µM in assay [3]; 98.8 µM in assay [4]; > 100 µM in assay [5]; 64.8 µM in assay [6]. Further, the TGI in [7] was determined as 59.7 µM.
With `O=c1/c(=C/c2ccc3c(c2)OCO3)sc2nnc(-c3ccco3)n12`, the TGI in assay [1], in assay [8], in assay [2], in assay [3], in assay [5] and in [6] was > 100 µM in each case. Besides, the TGI in assay [7] was > 100 µM.
Take `O=C1c2ccccc2C(=O)c2c1ccc1c2OCO1`: the TGI in [9] was > 100 µM.
The same measure, in the same setting: the same measure for `CN1CCCCC1CCN1c2ccccc2Sc2ccc(S(C)=O)cc21` (centres undefined): > 100 µM.
On to `COc1ccc(/C(C)=N/NC(N)=S)c(OC)c1`, for which the TGI in assay [1], in [8], in [3], in assay [4], in assay [5] and in [6] was > 100 µM each time. In addition, the TGI in assay [7] is > 100 µM.
In the case of `CC(Oc1ccc2cc(C(=O)c3ccccc3)c(=O)oc2c1)C(=O)O` (centres undefined), the TGI in assay [8], in [3], in assay [4], in assay [5], in assay [6] and in assay [7] was > 100 µM each time.
Regarding `COc1ccc(C(=O)O)c(Cc2ccc3ccccc3c2)c1`, the TGI in [1], in [8], in assay [2], in assay [3], in [5] and in [6] was > 100 µM throughout. Besides, in [7], the concentration for total growth inhibition (TGI) was > 100 µM.
For the compound `CC(=O)OCC1OC(n2c(-c3ccccc3)c(C)c(C)c(C#N)c2=S)C(OC(C)=O)C(OC(C)=O)C1OC(C)=O` (centres undefined), the TGI in assay [9] was > 50 µM and 56.6 µM.
Take `CC1=C(C(=O)Nc2ccccc2C)C(c2ccc(C3C(C(=O)Nc4ccccc4C)=CNC=C3C(=O)Nc3ccccc3C)cc2)C(C(=O)Nc2ccccc2C)=C(C)N1`: the TGI in assay [1] was 37.4 µM; in assay [8] it was 41.6 µM; in assay [2], 47.3 µM; in assay [3], > 57.3 µM; in [5], > 76 µM; in assay [6], > 60.5 µM. Moreover, the concentration for total growth inhibition (TGI) in assay [7] stood at 26.6 µM.
With `c1ccc(C2N3CCCCC3[C@@H]3c4[nH]c5ccccc5c4CCN23)cc1` (some centres undefined), the TGI in assay [1], in assay [8], in [2], in assay [3], in [5] and in assay [6] was > 100 µM each time. Also, the TGI in [7] is > 100 µM.
With `COC(=O)C1C2CCCN2OC1(C)CO` (centres undefined), in assay [9], the TGI is > 100 µM.
Still for that read-out and setting: as for `CCN(CC)CC(O)C1CCC(c2ccccc2)CC1` (centres undefined), the figure is 41.8 µM; as for `COc1ccc(-c2coc3cc(OC)cc(O)c3c2=O)cc1`, > 100 µM.
For `Oc1cc2c(cc1O)-c1[nH]ncc1CC2`, the TGI in assay [1] was > 100 µM; in assay [8], 86.7 µM; in assay [2], > 100 µM; in assay [3] it was > 100 µM; in assay [5], 61.8 µM; in assay [6], 75.2 µM. For the same compound, the TGI in [7] was > 100 µM.
As to `CC([O-])C(=O)[O-].NCC1CCC1CN.[Pt+4]` (centres undefined), in [9], the GI50 is > 10 µM and the TGI was > 10 µM.
Take `CNC1C(OC2C(OC3C(O)C(O)C(O)C(O)C3O)OC(C)C2(O)CO)OC(CO)C(O)C1O` (centres undefined) (tested in a mixture with another compound): in [9], the TGI was > 100 µM.
Turning to `C=C1C(=O)OC2/C=C(\C)C3OC3/C=C(/C(=O)OC)C(OC(C)=O)C(OC(=O)C(C)(O)C(C)OC(C)=O)C12` (centres undefined), the TGI was 7.52 µM in assay [1]; 69.1 µM in assay [9]; 5.6 µM in assay [8]; 10.6 µM in assay [2]; 22.4 µM in assay [3]; 19.6 µM in [4]. The TGI was determined as 4.01 µM in assay [6] and 2.36 µM in assay [7].
For the compound `CC(O[Si](C)(C)C)C1C=CC(C)n2c(=O)n(-c3ccccc3)c(=O)n21` (centres undefined), the TGI in assay [1], in [3], in [5] and in assay [6] was > 100 µM each time.
Turning to `O=C(c1ccc2c3c(ccc(C(=O)C(F)(F)F)c13)CC2)C(F)(F)F`, the TGI in assay [1] was > 100 µM; in [8], 50.2 µM; in assay [2], > 100 µM; in [3], > 100 µM; in assay [5], > 100 µM; in assay [6] it was > 100 µM. Besides, the TGI in assay [7] is > 100 µM.
Turning to `Cn1c(=S)sc2nc3ccccc3n2c1=S`, the TGI in [9] was determined as 38.5 µM.
Consider `ClC[Si]12OCCN(CCO1)CCO2`, for which the TGI in assay [1], in assay [2], in assay [4], in [5], in assay [6] and in assay [7] was > 100 µM in each case.
On to `Cc1cc2c(cc1C)[n+](=O)c(C(=O)/C=C/c1ccccc1Cl)c(C)n2[O-]`, for which the TGI was 42.1 µM in assay [1]; 42.1 µM in assay [8]; > 100 µM in [2]; > 100 µM in assay [3]; 84.9 µM in assay [4]; > 100 µM in assay [5]. Further, the concentration for total growth inhibition (TGI) in [6] amounted to 53.4 µM; in [7] it was 34.6 µM.
Take `CN(C)/C=N/c1nc2ncn(CCOC(=O)c3ccccc3)c2c(=O)[nH]1`: the total growth inhibition concentration (TGI) in [1], in [2], in assay [3], in [4], in [5] and in assay [6] was > 100 µM throughout. In [7], the TGI was > 100 µM.
In the case of `CN(C)CCC1(C2=CCCC2)CC/C(=C\c2ccccc2)C1=O` (centres undefined), the TGI was 37.5 µM in assay [1]; 29 µM in [2]; 28.5 µM in [3]; 29.2 µM in assay [5]; 33.2 µM in [6]; 29.6 µM in [7].
In the case of `CC(C)CC(=O)NS(=O)(=O)c1ccccc1`, the TGI in [1], in assay [8], in assay [3], in [4], in [5] and in [6] was > 100 µM throughout. Moreover, the total growth inhibition concentration (TGI) in assay [7] is > 100 µM.
Take `CC1(C)OC(=O)C(=C2CC(c3ccccc3)c3ccccc32)C(=O)O1` (centres undefined): the TGI in [1], in [3], in assay [4], in assay [5], in assay [6] and in assay [7] was > 100 µM throughout.
For `Cc1cc2c(c(N)c1C)C(=O)c1ccccc1C2=O`, the TGI is > 100 µM in assay [1]; > 100 µM in [2]; > 100 µM in assay [3]; 56 µM in [5]; > 100 µM in assay [6]; > 100 µM in assay [7].
As to `O=C1OC2C(O)C(=O)OC2C1O` (centres undefined), in [9], the TGI is > 100 µM.
Same read-out and setting: as for `Cc1nc2cc(N)c(Cl)cc2[nH]1`, the figure is > 100 µM.
As to `CCSc1nc2n(c(=S)n1)CCN2C`, the total growth inhibition concentration (TGI) in assay [2] was determined as 33.6 µM; in assay [3], 29.4 µM; in assay [6] it was 39.4 µM; in assay [7], 29.5 µM.
For `CC1=C(c2cc(C(=O)Nc3nccs3)nc(NC#N)n2)Sc2ccccc2N1`, the TGI in [1], in assay [8], in [2], in assay [3], in assay [4] and in assay [5] was > 100 µM throughout. In [7], the TGI is > 100 µM.
On to `O=C([O-])c1ccccc1Nc1ccccc1[O-].[Ni+3].[OH3+].[OH3+].[OH3+]`, for which the GI50 in assay [1], in assay [3], in assay [6] and in assay [7] was > 100 µM in each case. The total growth inhibition concentration (TGI) in [1], in assay [3], in [6] and in assay [7] was > 100 µM each time.
`CC1CCC23COC(=O)C2C(O)CCC3C1(C)CC(O)c1ccoc1` (centres undefined): the TGI in assay [1], in [8], in [3], in assay [5], in [6] and in assay [7] was > 100 µM in each case.
For `CCN(CC(COc1ccc2c(c1)[n+]([O-])nc(N)[n+]2[O-])OC(C)=O)C(C)=O` (centres undefined), in assay [9], the TGI was > 100 µM.
As to `O=C1C(N2C(=O)c3ccccc3C2=O)CN1C(COCc1ccccc1)c1ccc(OCc2ccccc2)cc1` (centres undefined), the total growth inhibition concentration (TGI) in assay [1], in assay [8], in assay [2], in assay [3], in [6] and in assay [7] was > 100 µM throughout.
As to `O=c1[nH]c(/C=C(\O)c2ccncc2)nc2ccccc12`, the TGI in [1], in assay [3] and in assay [6] was > 100 µM in each case.
Take `C[n+]1ccc(-c2c3nc(c(-c4ccc5c(ccc[n+]5C)c4)c4ccc([nH]4)c(-c4cc[n+](C)cc4)c4nc(c(-c5ccc6c(ccc[n+]6C)c5)c5ccc2[nH]5)C=C4)C=C3)cc1`: in [9], the GI50 is 30 µM and the TGI is > 50 µM.
As to `O=C(O)/C=C\C(=O)Nc1ccc2c(c1)C(=O)c1cc(F)ccc1-2`, the TGI in [9] is > 100 µM.

Values taken from PubChem BioAssay (NCI).
